Reference: patent US20200216416A1, “QUINOLINE COMPOUNDS AS INHIBITORS OF TAM AND MET KINASES” (Array BioPharma Inc., priority 2019, published 2020)
Where two headings read alike, the source gives them in different places.

Experiments:
MDR1 (P-gp) = molecular target: T1, MDR1 (P-gp) (Homo sapiens, UniProt P08183); experiment: MDR1 LLC-PK1 permeability assay; format: in vitro ADME; conditions: pig, MDR1 transfected LLC-PK1 cells; for Papp at 2 h, 1 μM: permeability coefficient (Papp)
T1 construct: expressed in transfected cells; host or cells: LLC-PK1
T1 sequence (P08183 whole entry): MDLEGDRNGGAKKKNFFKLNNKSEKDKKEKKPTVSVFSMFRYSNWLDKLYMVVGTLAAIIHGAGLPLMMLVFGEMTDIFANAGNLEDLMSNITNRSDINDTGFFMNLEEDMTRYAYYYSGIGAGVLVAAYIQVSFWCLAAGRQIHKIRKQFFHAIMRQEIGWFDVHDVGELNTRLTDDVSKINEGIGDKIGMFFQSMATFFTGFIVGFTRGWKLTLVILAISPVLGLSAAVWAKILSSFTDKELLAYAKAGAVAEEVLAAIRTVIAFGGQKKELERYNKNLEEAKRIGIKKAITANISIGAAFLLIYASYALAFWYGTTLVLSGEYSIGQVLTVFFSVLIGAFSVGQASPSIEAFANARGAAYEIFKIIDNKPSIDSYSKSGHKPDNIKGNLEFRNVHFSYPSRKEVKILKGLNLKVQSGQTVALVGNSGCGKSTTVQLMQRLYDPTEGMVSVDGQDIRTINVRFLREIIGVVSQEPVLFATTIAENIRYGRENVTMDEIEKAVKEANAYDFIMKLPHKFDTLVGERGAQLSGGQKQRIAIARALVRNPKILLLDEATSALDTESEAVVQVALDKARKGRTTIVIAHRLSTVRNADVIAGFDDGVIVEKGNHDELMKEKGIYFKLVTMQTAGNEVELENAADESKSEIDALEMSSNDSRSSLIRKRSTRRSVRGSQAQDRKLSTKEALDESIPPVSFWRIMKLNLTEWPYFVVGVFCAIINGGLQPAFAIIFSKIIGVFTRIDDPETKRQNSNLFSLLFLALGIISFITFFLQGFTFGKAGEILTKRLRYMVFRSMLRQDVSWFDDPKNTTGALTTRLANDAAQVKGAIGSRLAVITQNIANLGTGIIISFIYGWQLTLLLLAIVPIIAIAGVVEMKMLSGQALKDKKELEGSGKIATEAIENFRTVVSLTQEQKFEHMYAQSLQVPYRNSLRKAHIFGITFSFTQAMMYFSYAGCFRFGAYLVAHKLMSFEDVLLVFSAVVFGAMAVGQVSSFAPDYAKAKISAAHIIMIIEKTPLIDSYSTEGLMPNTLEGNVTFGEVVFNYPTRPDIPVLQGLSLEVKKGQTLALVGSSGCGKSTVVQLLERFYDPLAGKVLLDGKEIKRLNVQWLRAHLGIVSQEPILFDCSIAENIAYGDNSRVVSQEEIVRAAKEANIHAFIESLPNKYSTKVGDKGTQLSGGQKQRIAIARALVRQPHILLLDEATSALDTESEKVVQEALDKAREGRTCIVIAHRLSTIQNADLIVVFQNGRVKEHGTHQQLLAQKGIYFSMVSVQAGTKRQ
Experimental: MDR1 transfected LLC-PK1 cells were cultured and plated according to manufacturer's recommendations with the exception that the passage media contained only 2% fetal bovine serum to extend passage time out to seven days.
Both positive and negative controls were used to assess functionality of P-gp efflux in the assay. Stock solutions for assay controls and the test article were prepared in DMSO for final test concentrations of 10 and 1 μM, respectively. Final organic concentration in the assay was 1%. All dosing solutions contained 10 μM lucifer yellow to monitor LLC-PK1 cell monolayer integrity.
For the apical to basolateral determination (A to B), 75 μL of the test article in transport buffer were added to the apical side of the individual transwells and 250 μL of basolateral media, without compound or lucifer yellow, were added to each well. For the basolateral to apical determination (B to A), 250 μL of test article in transport buffer were added to each well and 75 μL transport buffer, without compound or lucifer yellow, were added to each transwell. All tests were performed in triplicate, and each compound was tested for both apical to basolateral and basolateral to apical transport. The plates were incubated for 2 hours on a Lab-Line Instruments Titer Orbital Shaker (VWR, West Chester, Pa.) at 50 rpm and 37° C. with 5% CO2. All culture plates were removed from the incubator and 50 μL of media were removed from the apical and basolateral portion of each well and added to 150 μL of 1 μM labetalol in 2:1 acetonitrile (acetonitrile): H2O, v/v.
The plates were read using a Molecular Devices (Sunnyvale, Calif.) Gemini Fluorometer to evaluate the lucifer yellow concentrations at excitation/emission wavelengths of 425/535 nm. These values were accepted when found to be below 2% for apical to basolateral and 5% basolateral to apical flux across the MDR1-transfected LLC-PK1-transfected cell monolayers. The plates were sealed and the contents of each well analyzed by LC-MS/MS. The compound concentrations were determined from the ratio of the peak areas of the compound to the internal standard (labetalol) in comparison to the dosing solution.
The LC-MS/MS system was comprised of an HTS-PAL autosampler (Leap Technologies, Carrboro, N.C.), an HP1200 HPLC (Agilent, Palo Alto, Calif.), and a MDS Sciex 4000 Q Trap system (Applied Biosystems, Foster City, Calif.). […] The total run time, including re-equilibration, for a single injection was 1.2 minutes. Mass spectrometric detection of the analytes was accomplished using the ion spray positive mode. Analyte responses were measured by multiple reaction monitoring (MRM) of transitions unique to each compound (the protonated precursor ion and selected product ions for each test article and m/z 329 to m/z 162 for labetalol, the internal standard).
The permeability coefficient (Papp) is calculated from the following equation: […]
where Cd, V, t and C0 are the detected concentration (μM), the volume on the dosing side (mL), the incubation time (s) and the initial dosing concentration (μM), respectively. The calculations for Papp were made for each replicate and then averaged. In this assay, a compound is defined has having high permeability if the permeability is greater than 8×10^−6 cm/sec, a compound is defined has having medium permeability if the permeability is from 2×10^−6 cm/sec to 8×10^−6 cm/sec, and a compound is defined has having low permeability if the permeability is less than 2×10^−6 cm/sec.
An efflux ratio was calculated from the mean apical to basolateral (A-B) Papp data and basolateral to apical (B-A) Papp data:
Efflux ratio=Papp(B−A)/Papp(A−B)

human MET kinase F1200I = molecular target: T2, human MET kinase F1200I (Homo sapiens, UniProt P08581, F1200I); experiment: c-Met Enzyme Assay, F1200I mutant; format: binding; conditions: averaged IC50; F1200I 2 nM; 60-minute incubation at 22° C.
T2 construct: GST-tagged recombinant human MET kinase domain; purchased Signal Chem
T2 sequence (P08581 1078-1345 F1200I limits assumed): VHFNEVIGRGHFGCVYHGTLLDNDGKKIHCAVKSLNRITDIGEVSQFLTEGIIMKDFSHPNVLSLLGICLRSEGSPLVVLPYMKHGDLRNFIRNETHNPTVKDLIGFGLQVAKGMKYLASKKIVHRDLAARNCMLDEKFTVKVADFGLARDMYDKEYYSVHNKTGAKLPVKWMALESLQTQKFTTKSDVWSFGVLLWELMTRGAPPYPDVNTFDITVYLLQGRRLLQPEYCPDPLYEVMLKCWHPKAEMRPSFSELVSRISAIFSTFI
Experimental: (§1) The affinity of compound binding to wild type and mutant human MET kinases was measured using Invitrogen's LanthaScreen™ Eu Kinase Binding technology. Briefly, GST-tagged recombinant human MET kinase domain from Signal Chem (see Table 8 below for concentration in assay) was incubated with 50 nM Alexa-Fluor® Tracer 236 (Invitrogen Cat No. PR9078A) and 2 nM Europium-anti-GST (Invitrogen Cat. No. A15116) along with test compound in a buffer consisting of 25 mM HEPES, pH 7.4, 10 mM MgCl2, 0.01% Triton X-100, 1mM DTT, and 2% DMSO. Compounds were typically prepared in a three-fold serial dilution in DMSO and added to the assay to give the appropriate final concentration. After a 60-minute incubation at 22° C., the reaction was measured using a PerkinElmer EnVision multimode plate reader via TR-FRET dual wavelength detection, and the percent of control (POC) calculated using a ratiometric emission factor. […] The POC values were fit to a 4 parameter logistic curve and the IC50 value is point where the curve crosses 50 POC.

human MET kinase D1228H = molecular target: T3, human MET kinase D1228H (Homo sapiens, UniProt P08581, D1228H); experiment: c-Met Enzyme Assay, D1228H mutant; format: binding; conditions: averaged IC50; D1228H 2 nM; 60-minute incubation at 22° C.; read-out: D1228 H IC50
T3 construct: GST-tagged recombinant human MET kinase domain; purchased Signal Chem
T3 sequence (P08581 1078-1345 D1228H): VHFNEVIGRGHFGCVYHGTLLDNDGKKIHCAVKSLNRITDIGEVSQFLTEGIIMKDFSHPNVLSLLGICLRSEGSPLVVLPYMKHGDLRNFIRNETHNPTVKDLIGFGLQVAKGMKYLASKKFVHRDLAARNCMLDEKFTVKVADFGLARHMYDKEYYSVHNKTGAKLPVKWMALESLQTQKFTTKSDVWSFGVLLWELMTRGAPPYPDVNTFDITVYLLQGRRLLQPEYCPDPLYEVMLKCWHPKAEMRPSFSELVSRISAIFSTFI
Experimental: as §1

[1] = LLC-PK1, efflux ratio = Papp(B-A)/Papp(A-B), read-out: MDR1 Pe Ratio
[2] = LLC-PK1, Papp(B−A)/Papp(A−B), test article 1 μM, 2 hours, 37° C., read-out: Efflux ratio

Structure (SMILES) | efflux ratio at 2 h, 1 μM (MDR1 (P-gp); [1]) | Papp at 2 h, 1 μM (MDR1 (P-gp)) | IC50 (human MET kinase F1200I) | IC50 (human MET kinase D1228H) | efflux ratio at 2 h, 1 μM (MDR1 (P-gp); [2])
COc1cc2nccc(Oc3ccc(NC(=O)c4cn(CCC(C)C)cc(-c5ccc(F)c(F)c5)c4=O)nc3)c2cc1OC [Example 35, 5-(3,4-difluorophenyl)-N-(5-((6,7-dimethoxyquinolin-4yl)oxy)pyridin-2-yl)-1-isopentyl-4-oxo-1,4-dihydropyridine-3-carboxamide] | – | < 1 ×10⁻⁶ cm/s | 11.5 nM | 8.3 nM | 3.5
COc1cc2nccc(Oc3ccc(NC(=O)c4cn(CCC(C)C)cc(-c5ccc(Cl)cc5)c4=O)nc3)c2cc1OC [Example 37] | 13 | < 1 ×10⁻⁶ cm/s | 16.4 nM | 10.5 nM | –
CCn1cc(C(=O)Nc2ccc(Oc3ccnc4ccc(OC)cc34)cn2)c(=O)c(-c2ccc(F)cc2)c1 [Example 39, 1-ethyl-5-(4-fluorophenyl)-N-(5-((6-methoxyquinolin-4-yl)oxy)pyridin-2-yl)-4-oxo-1,4-dihydropyridine-3-carboxamide] | 0.9 | 7 ×10⁻⁶ cm/s | 31.6 nM | 66.3 nM | 3.5
COc1ccc2nccc(Oc3ccc(NC(=O)c4cn(C)cc(-c5ccc(F)cc5)c4=O)nc3)c2c1 [Example 41, 5-(4-fluorophenyl)-N-(5-((6-methoxyquinolin-4yl)oxy)pyridin-2-yl)-1-methyl-4-oxo-1,4-dihydropyridine-3-carboxamide] | 2.5 | 7 ×10⁻⁶ cm/s | 105 nM | 258 nM | 3.5
COc1cc2nccc(Oc3ccc(NC(=O)c4cn(C)c(C(C)C)c(-c5ccc(F)cc5)c4=O)nc3)c2cc1OC [Example 45, N-(5-((6,7-dimethoxyquinolin-4-yl)oxy)pyridin-2-yl)-5-(4-fluorophenyl)-6-isopropyl-1-methyl-4-oxo-1,4-dihydropyridine-3-carboxamide] | 16 | 5 ×10⁻⁶ cm/s | 8.3 nM | 11.1 nM | –
COc1ccc2nccc(Oc3ccc(NC(=O)c4cn(CCN(C)C)cc(-c5ccc(F)cc5)c4=O)nc3)c2c1 [Example 47] | 9.3 | – | 8.5 nM | 31.1 nM | –
COc1cc2c(Oc3ccc(NC(=O)c4cn(C(C)C)cc(-c5ccc(F)cc5)c4=O)nc3)ccnc2cc1F [Example 49, N-(5-((7-fluoro-6-methoxyquinolin-4yl)oxy)pyridin-2-yl)-5-(4-fluorophenyl)-1-isopropyl-4-oxo-1,4-dihydropyridine-3-carboxamide] | 0.99 | 4 ×10⁻⁶ cm/s | 27.8 nM | 64.3 nM | 3.5
CC(C)n1cc(C(=O)Nc2ccc(Oc3ccnc4cc(OC(F)(F)F)ccc34)cn2)c(=O)c(-c2ccc(F)cc2)c1 [Example 50, 5-(4-fluorophenyl)-1-isopropyl-4-oxo-N-(5-((7-(trifluoromethoxy)quinolin-4-yl)oxy)pyridin-2-yl)-1,4-dihydropyridine-3-carboxamide] | 4.7 | < 1 ×10⁻⁶ cm/s | 104 nM | 223 nM | –

These reach a lower IC50 (human MET kinase F1200I). Values come first.

efflux ratio at 2 h, 1 μM (MDR1 (P-gp); [1]) | Papp at 2 h, 1 μM (MDR1 (P-gp)) | IC50 (human MET kinase F1200I) | IC50 (human MET kinase D1228H) | efflux ratio at 2 h, 1 μM (MDR1 (P-gp); [2]) | Structure (SMILES)
7.1 | 14 ×10⁻⁶ cm/s | 4.2 nM | 10 nM | – | COc1cc2nccc(Oc3ccc(NC(=O)c4cn(C(C)C)cc(-c5ccc(F)cc5OC)c4=O)nc3)c2cc1OC [Example 32, N-(5-((6,7-dimethoxyquinolin-4yl)oxy)pyridin-2-yl)-5-(4-fluoro-2-methoxyphenyl)-1-isopropyl-4-oxo-1,4-dihydropyridine-3-carboxamide]
2 | 10 ×10⁻⁶ cm/s | 4.6 nM | 5.2 nM | 3.5 | COc1ccc2nccc(Oc3ccc(NC(=O)c4cn(C(C)C)c(C)c(-c5ccc(F)cc5)c4=O)nc3)c2c1 [Example 33, 5-(4-fluorophenyl)-1-isopropyl-N-(5-((6-methoxyquinolin-4-yl)oxy)pyridin-2-yl)-6-methyl-4-oxo-1,4-dihydropyridine-3-carboxamide]
5.3 | < 1 ×10⁻⁶ cm/s | 7.4 nM | 5.5 nM | – | COc1cc2nccc(Oc3ccc(NC(=O)c4cn(CCC(C)C)cc(-c5ccc(F)cc5)c4=O)nc3)c2cc1OC [Example 34, N-(5-((6,7-dimethoxyquinolin-4yl)oxy)pyridin-2-yl)-5-(4-fluorophenyl)-1-isopentyl-4-oxo-1,4-dihydropyridine-3-carboxamide]
4.3 | 1 ×10⁻⁶ cm/s | 3.2 nM | 1.8 nM | – | COc1cc2nccc(Oc3ccc(NC(=O)c4cn(CCC(C)C)cc(-c5ccc(F)cc5F)c4=O)nc3)c2cc1OC [Example 36, 5-(2,4-difluorophenyl)-N-(5-((6,7-dimethoxyquinolin-4yl)oxy)pyridin-2-yl)-1-isopentyl-4-oxo-1,4-dihydropyridine-3-carboxamide]
12 | – | 3.4 nM | 2.4 nM | – | COc1cc2nccc(Oc3ccc(NC(=O)c4cn(CCN(C)C)cc(-c5ccc(Cl)cc5)c4=O)nc3)c2cc1OC [Example 42]
13 | – | 2 nM | 1.6 nM | – | COc1cc2nccc(Oc3ccc(NC(=O)c4cn(CCN(C)C)cc(-c5ccc(F)c(F)c5)c4=O)nc3)c2cc1OC [Example 43, 5-(3,4-difluorophenyl)-N-(5-((6,7-dimethoxyquinolin-4-yl)oxy)pyridin-2-yl)-1-]
11 | 2 ×10⁻⁶ cm/s | 4.2 nM | 1.9 nM | – | COc1cc2nccc(Oc3ccc(NC(=O)c4cn(CCN(C)C)cc(-c5ccc(F)cc5F)c4=O)nc3)c2cc1OC [Example 44, 5-(2,4-difluorophenyl)-N-(5-((6,7-dimethoxyquinolin-4-yl)oxy)pyridin-2-yl)-1-(2-(dimethylamino)ethyl)-4-oxo-1,4-dihydropyridine-3-carboxamide]
13 | 2 ×10⁻⁶ cm/s | 3.4 nM | 3.2 nM | – | COc1cc2nccc(Oc3ccc(NC(=O)c4cn(CCN(C)C)cc(-c5ccc(F)cc5)c4=O)nc3)c2cc1OC [Example 46]
1.6 | 15 ×10⁻⁶ cm/s | 5.4 nM | 11.9 nM | 3.5 | COc1cc2c(Oc3ccc(NC(=O)c4cn(C(C)C)c(C)c(-c5ccc(F)cc5)c4=O)nc3)ccnc2cc1F [Example 48, N-(5-((7-fluoro-6-methoxyquinolin-4yl)oxy)pyridin-2-yl)-5-(4-fluorophenyl)-1-isopropyl-6-methyl-4-oxo-1,4-dihydropyridine-3-carboxamide]
